Like-named read-outs stand apart in the source and are kept apart here.
Biological target: single-stranded miR-145
Assay: Isothermal titration calorimetry (ITC), Waters Nano-ITC
Assay type: binding
Settings: for Kd: Multiple Sites model
From the text: Isothermal titration calorimetry (ITC) utilizes the principle of power compensation to accurately obtain the enthalpy change of intermolecular interactions within a broad concentration range in the system through a single concentration scan. It measures the heat change during binding and provides the complete thermodynamic characteristics of nucleic acid-ligand interactions. Quantifying the thermodynamic properties and energy of the complex is essential for analyzing the molecular basis of the interaction between the microRNA miR-145 and the compound. The present invention uses the Waters Nano-ITC calorimeter to in vitro verify the nucleic acid-small molecule interactions.
The experimental process involves placing 300µL of a 50µM single-stranded miR-145 solution in a temperaturecontrolled sample chamber, and using small molecule A-3-6 (i.e., the 2-phenyl-N-(1H-pyrrolo[2,3-c]pyridine-5-yl)acetamide obtained in Example 9) as the ligand in a 50µL, 500µM concentration, which is gradually injected (or titrated) into the sample chamber. The heat change is measured by comparing the sample chamber with a reference chamber, showing either an endothermic or exothermic peak. The interaction pattern between the two reactants is fitted using the software provided by the instrument, and it directly calculates the reaction binding enthalpy (ΔH, kJ/mol), reaction binding entropy (ΔS, J/(mol·K)), number of binding sites (n), and binding equilibrium constant (Ka, M), obtaining the kinetic data. […] The calculated number of binding sites (nSite) for A-3-6 with miR-145 solution are n1=3 and n2=1.8, with Kd1=7.017E-8 and Kd2=7.544E-9, ΔH1=-69.08 and ΔH2=-137.2, ΔS1=-9.474E1 and ΔS2=-3.048E2.

Kd (site 1, read-out: Kd1): 70.2 nM | Kd (site 2, read-out: Kd2): 7.54 nM | binding to the target single-stranded miR-145 (conclusion from the ITC experiment): can specifically bind
Compound: O=C(Cc1ccccc1)Nc1cc2cc[nH]c2cn1 [Compound A-3-6, 2-Phenyl-N-(1H-Pyrrolo[2,3-c]pyridin-5-yl)acetamide]
